Experimental data reported in PubChem BioAssay (NCI).
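All cell lines were grown in 96-well plates and treated with compound for 48 hours. The concentration for 50% growth inhibition is given as GI50. TGI: total growth inhibition.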

Tests used:
Test in all cases: growth of human tumour cells (NCI), 48 h
NCI/ADR-RES ovarian = test system: NCI/ADR-RES ovarian
SF-268 CNS = test system: SF-268 CNS
786-0 renal = test system: 786-0 renal
MDA-MB-435 = test system: MDA-MB-435
OVCAR-8 ovarian = test system: OVCAR-8 ovarian
PC-3 prostate = test system: PC-3 prostate
SK-MEL-28 melanoma = test system: SK-MEL-28 melanoma
U251 CNS = test system: U251 CNS
NCI-H226 lung = test system: NCI-H226 lung
MDA-MB-231 breast = test system: MDA-MB-231 breast
HS 578T breast = test system: HS 578T breast
MOLT-4 leukemia = test system: MOLT-4 leukemia
SNB-19 CNS = test system: SNB-19 CNS
K-562 leukemia = test system: K-562 leukemia
NCI-H23 lung = test system: NCI-H23 lung
NCI-H522 lung = test system: NCI-H522 lung
HL-60(TB) leukemia = test system: HL-60(TB) leukemia
EKVX NSCLC = test system: EKVX NSCLC
OVCAR-3 ovarian = test system: OVCAR-3 ovarian
UO-31 renal = test system: UO-31 renal
COLO 205 colon = test system: COLO 205 colon
BT-549 breast = test system: BT-549 breast
HOP-92 NSCLC = test system: HOP-92 NSCLC
SK-MEL-2 melanoma = test system: SK-MEL-2 melanoma
OVCAR-5 ovarian = test system: OVCAR-5 ovarian
SF-295 CNS = test system: SF-295 CNS
A549 NSCLC = test system: A549 NSCLC
T-47D breast = test system: T-47D breast
HOP-62 NSCLC = test system: HOP-62 NSCLC
UACC-62 melanoma = test system: UACC-62 melanoma
CCRF-CEM leukemia = test system: CCRF-CEM leukemia
SK-MEL-5 melanoma = test system: SK-MEL-5 melanoma
IGROV1 ovarian = test system: IGROV1 ovarian
SN12C renal = test system: SN12C renal
TK-10 renal = test system: TK-10 renal
M14 melanoma = test system: M14 melanoma
LOX IMVI melanoma = test system: LOX IMVI melanoma
MCF7 breast = test system: MCF7 breast
KM12 colon = test system: KM12 colon
RPMI-8226 leukemia = test system: RPMI-8226 leukemia
HT29 colon = test system: HT29 colon
DU-145 prostate = test system: DU-145 prostate
NCI-H460 lung = test system: NCI-H460 lung
CAKI-1 renal = test system: CAKI-1 renal
OVCAR-4 ovarian = test system: OVCAR-4 ovarian
HCT-116 colon = test system: HCT-116 colon
SW-620 colon = test system: SW-620 colon
HCT-15 colon = test system: HCT-15 colon
UACC-257 melanoma = test system: UACC-257 melanoma
MALME-3M melanoma = test system: MALME-3M melanoma
RXF 393 renal = test system: RXF 393 renal
SK-OV-3 ovarian = test system: SK-OV-3 ovarian
SF-539 CNS = test system: SF-539 CNS
SNB-75 CNS = test system: SNB-75 CNS
A498 renal = test system: A498 renal
ACHN renal = test system: ACHN renal
HCC-2998 colon = test system: HCC-2998 colon

Compound: CC(C)=NN/C(=N\S(=O)(=O)c1cc2ccccc2s1)Nc1ccc(Cl)cc1
- TGI (NCI/ADR-RES ovarian): > 100 µM
- TGI (SF-268 CNS): > 100 µM
- TGI (786-0 renal): > 100 µM
- TGI (MDA-MB-435): > 100 µM
- TGI (OVCAR-8 ovarian): > 100 µM
- TGI (PC-3 prostate): > 100 µM
- TGI (SK-MEL-28 melanoma): > 100 µM
- TGI (U251 CNS): > 100 µM
- TGI (NCI-H226 lung): > 100 µM
- TGI (MDA-MB-231 breast): > 100 µM
- TGI (HS 578T breast): > 100 µM
- TGI (MOLT-4 leukemia): > 100 µM
- TGI (SNB-19 CNS): > 100 µM
- TGI (K-562 leukemia): > 100 µM
- TGI (NCI-H23 lung): > 100 µM
- TGI (NCI-H522 lung): > 100 µM
- TGI (HL-60(TB) leukemia): > 100 µM
- TGI (EKVX NSCLC): 60.2 µM
- TGI (OVCAR-3 ovarian): > 100 µM
- TGI (UO-31 renal): > 100 µM
- TGI (COLO 205 colon): > 100 µM
- TGI (BT-549 breast): > 100 µM
- TGI (HOP-92 NSCLC): > 100 µM
- TGI (SK-MEL-2 melanoma): > 100 µM
- TGI (OVCAR-5 ovarian): > 100 µM
- TGI (SF-295 CNS): > 100 µM
- TGI (A549 NSCLC): > 100 µM
- TGI (T-47D breast): 76.3 µM
- TGI (HOP-62 NSCLC): > 100 µM
- TGI (UACC-62 melanoma): > 100 µM
- TGI (CCRF-CEM leukemia): > 100 µM
- TGI (SK-MEL-5 melanoma): > 100 µM
- TGI (IGROV1 ovarian): > 100 µM
- TGI (SN12C renal): > 100 µM
- TGI (TK-10 renal): > 100 µM
- TGI (M14 melanoma): > 100 µM
- TGI (LOX IMVI melanoma): > 100 µM
- TGI (MCF7 breast): > 100 µM
- TGI (KM12 colon): > 100 µM
- TGI (RPMI-8226 leukemia): > 100 µM
- TGI (HT29 colon): > 100 µM
- TGI (DU-145 prostate): > 100 µM
- TGI (NCI-H460 lung): > 100 µM
- TGI (CAKI-1 renal): > 100 µM
- TGI (OVCAR-4 ovarian): > 100 µM
- TGI (HCT-116 colon): > 100 µM
- TGI (SW-620 colon): > 100 µM
- TGI (HCT-15 colon): > 100 µM
- TGI (UACC-257 melanoma): > 100 µM
- TGI (MALME-3M melanoma): > 100 µM

Compound: N#Cc1ccccc1C#C/C=C\C#Cc1cccs1
- GI50 (NCI/ADR-RES ovarian): 25.4 µM
- TGI (NCI/ADR-RES ovarian): > 100 µM
- GI50 (SF-268 CNS): 19.1 µM
- TGI (SF-268 CNS): 55.7 µM
- GI50 (786-0 renal): 29.4 µM
- TGI (786-0 renal): 84.1 µM
- GI50 (MDA-MB-435): 2.11 µM
- TGI (MDA-MB-435): 4.35 µM
- GI50 (RXF 393 renal): 14.9 µM
- TGI (RXF 393 renal): 48.1 µM
- GI50 (SK-OV-3 ovarian): 28.9 µM
- TGI (SK-OV-3 ovarian): > 100 µM
- GI50 (OVCAR-8 ovarian): 30.3 µM
- TGI (OVCAR-8 ovarian): > 100 µM
- GI50 (PC-3 prostate): 28.6 µM
- TGI (PC-3 prostate): > 100 µM
- GI50 (SK-MEL-28 melanoma): 14.8 µM
- TGI (SK-MEL-28 melanoma): > 100 µM
- GI50 (U251 CNS): 16.4 µM
- TGI (U251 CNS): 67.1 µM
- GI50 (NCI-H226 lung): 47 µM
- TGI (NCI-H226 lung): > 100 µM
- GI50 (MDA-MB-231 breast): 26.1 µM
- TGI (MDA-MB-231 breast): > 100 µM
- GI50 (SF-539 CNS): 14.4 µM
- TGI (SF-539 CNS): 34.1 µM
- GI50 (HS 578T breast): 8.03 µM
- TGI (HS 578T breast): 53.7 µM
- GI50 (MOLT-4 leukemia): 8.19 µM
- TGI (MOLT-4 leukemia): > 100 µM
- GI50 (SNB-19 CNS): 45.8 µM
- TGI (SNB-19 CNS): > 100 µM
- GI50 (K-562 leukemia): 6.46 µM
- TGI (K-562 leukemia): > 100 µM
- GI50 (NCI-H23 lung): 33.2 µM
- TGI (NCI-H23 lung): > 100 µM
- GI50 (NCI-H522 lung): 36.8 µM
- TGI (NCI-H522 lung): > 100 µM
- GI50 (EKVX NSCLC): 24.8 µM
- TGI (EKVX NSCLC): > 100 µM
- GI50 (OVCAR-3 ovarian): 14.1 µM
- TGI (OVCAR-3 ovarian): 34.2 µM
- GI50 (SNB-75 CNS): 26.2 µM
- TGI (SNB-75 CNS): > 100 µM
- GI50 (UO-31 renal): 46.5 µM
- TGI (UO-31 renal): > 100 µM
- GI50 (COLO 205 colon): 14.3 µM
- TGI (COLO 205 colon): 32.2 µM
- GI50 (BT-549 breast): 12.2 µM
- TGI (BT-549 breast): 94.8 µM
- GI50 (HOP-92 NSCLC): 25.8 µM
- TGI (HOP-92 NSCLC): > 100 µM
- GI50 (SK-MEL-2 melanoma): 62.8 µM
- TGI (SK-MEL-2 melanoma): > 100 µM
- GI50 (OVCAR-5 ovarian): 70.7 µM
- TGI (OVCAR-5 ovarian): > 100 µM
- GI50 (SF-295 CNS): 13.8 µM
- TGI (SF-295 CNS): 31.9 µM
- GI50 (A549 NSCLC): 25 µM
- TGI (A549 NSCLC): > 100 µM
- GI50 (A498 renal): 18.5 µM
- TGI (A498 renal): 54.3 µM
- GI50 (T-47D breast): 12.6 µM
- TGI (T-47D breast): > 100 µM
- GI50 (HOP-62 NSCLC): 16.5 µM
- TGI (HOP-62 NSCLC): 61.4 µM
- GI50 (ACHN renal): 32 µM
- TGI (ACHN renal): > 100 µM
- GI50 (UACC-62 melanoma): 12.3 µM
- TGI (UACC-62 melanoma): > 100 µM
- GI50 (SK-MEL-5 melanoma): 14.5 µM
- TGI (SK-MEL-5 melanoma): 39 µM
- GI50 (IGROV1 ovarian): 42.7 µM
- TGI (IGROV1 ovarian): > 100 µM
- GI50 (SN12C renal): 33 µM
- TGI (SN12C renal): > 100 µM
- GI50 (TK-10 renal): 20.7 µM
- TGI (TK-10 renal): 62.5 µM
- GI50 (M14 melanoma): 11.4 µM
- TGI (M14 melanoma): 56.5 µM
- GI50 (LOX IMVI melanoma): 15.7 µM
- TGI (LOX IMVI melanoma): 92.4 µM
- GI50 (MCF7 breast): 6.07 µM
- TGI (MCF7 breast): 45.9 µM
- GI50 (KM12 colon): 3.93 µM
- TGI (KM12 colon): 16.8 µM
- GI50 (RPMI-8226 leukemia): 11.1 µM
- TGI (RPMI-8226 leukemia): 51.2 µM
- GI50 (HT29 colon): 11.8 µM
- TGI (HT29 colon): > 100 µM
- GI50 (DU-145 prostate): 19.7 µM
- TGI (DU-145 prostate): 77.3 µM
- GI50 (NCI-H460 lung): 21.9 µM
- TGI (NCI-H460 lung): 75.8 µM
- GI50 (CAKI-1 renal): 16 µM
- TGI (CAKI-1 renal): 78 µM
- GI50 (OVCAR-4 ovarian): 34.9 µM
- TGI (OVCAR-4 ovarian): > 100 µM
- GI50 (HCT-116 colon): 11.7 µM
- TGI (HCT-116 colon): 46 µM
- GI50 (SW-620 colon): 7.78 µM
- TGI (SW-620 colon): > 100 µM
- GI50 (HCT-15 colon): 14.5 µM
- TGI (HCT-15 colon): 83.1 µM
- GI50 (UACC-257 melanoma): 32.5 µM
- TGI (UACC-257 melanoma): > 100 µM
- GI50 (MALME-3M melanoma): 19.5 µM
- TGI (MALME-3M melanoma): 48.1 µM
- GI50 (HCC-2998 colon): 28.3 µM
- TGI (HCC-2998 colon): > 100 µM
